Test results: patent US4705749A, “Process and reagent for the determination of glycerol with the use of glycerol kinase” (Boehringer Mannheim GmbH, priority 1983, dated 1987)

How the values were obtained:
[1] = biological target: T1, GK from Bacillus stearothermophilus (Geobacillus stearothermophilus, UniProt A0ACH1EBP7); test: Comparative investigation of inhibitors, reaction rate ΔE/min (Table 1); type: biochemical; settings: sample glycerol 6 mMole/liter, 1:100, 25° C., 546 nm
T1 construct: coupled glycerol phosphate oxidase/peroxidase test
Protocol: (§1) Comparative investigation of various inhibitors according to the present invention with GK of varying origin: […]
(§2) tris/HCl 0.1 mole/litre, pH 7.6
(§3) glycerol phosphate oxidase
(§4) glycerol kinase 2.0 U/ml.
(§5) magnesium sulphate heptahydrate
(§6) 4-chlorophenol 3.5 mMole/litre
(§7) 4-aminoantipyrine 0.35 mMole/litre
(§8) Sample: aqueous glycerol solution 6 mMole/liter sample/reagent ratio 1:100 (20 μl./2 ml.)
(§9) measurement wavelength 546 nm. (ΔE/min. in each case read off from the linear region)

GK from Escherichia coli = GK from Escherichia coli (Escherichia coli, UniProt P0A6F3); test: Comparative investigation of inhibitors, reaction rate ΔE/min (Table 2); type: biochemical; settings: sample glycerol 6 mMole/liter, 1:100, 25° C., 546 nm
Protocol: as §1, §2, §3, §4, §5, §6, §7, §8, §9

Sequence of GK from Escherichia coli (P0A6F3 whole entry): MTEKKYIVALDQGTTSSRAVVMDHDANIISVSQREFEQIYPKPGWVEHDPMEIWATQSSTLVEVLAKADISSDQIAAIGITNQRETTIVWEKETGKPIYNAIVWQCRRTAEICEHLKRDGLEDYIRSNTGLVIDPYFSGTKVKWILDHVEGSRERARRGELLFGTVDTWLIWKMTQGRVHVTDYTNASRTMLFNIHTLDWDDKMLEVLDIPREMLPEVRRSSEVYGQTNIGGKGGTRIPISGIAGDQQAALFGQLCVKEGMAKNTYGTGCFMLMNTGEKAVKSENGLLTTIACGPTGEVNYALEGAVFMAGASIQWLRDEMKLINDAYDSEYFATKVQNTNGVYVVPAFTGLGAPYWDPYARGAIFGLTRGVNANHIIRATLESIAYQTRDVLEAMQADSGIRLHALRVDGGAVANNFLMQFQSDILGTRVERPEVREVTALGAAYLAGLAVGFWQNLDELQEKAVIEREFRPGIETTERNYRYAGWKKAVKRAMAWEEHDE
T1 sequence (A0ACH1EBP7 1-496): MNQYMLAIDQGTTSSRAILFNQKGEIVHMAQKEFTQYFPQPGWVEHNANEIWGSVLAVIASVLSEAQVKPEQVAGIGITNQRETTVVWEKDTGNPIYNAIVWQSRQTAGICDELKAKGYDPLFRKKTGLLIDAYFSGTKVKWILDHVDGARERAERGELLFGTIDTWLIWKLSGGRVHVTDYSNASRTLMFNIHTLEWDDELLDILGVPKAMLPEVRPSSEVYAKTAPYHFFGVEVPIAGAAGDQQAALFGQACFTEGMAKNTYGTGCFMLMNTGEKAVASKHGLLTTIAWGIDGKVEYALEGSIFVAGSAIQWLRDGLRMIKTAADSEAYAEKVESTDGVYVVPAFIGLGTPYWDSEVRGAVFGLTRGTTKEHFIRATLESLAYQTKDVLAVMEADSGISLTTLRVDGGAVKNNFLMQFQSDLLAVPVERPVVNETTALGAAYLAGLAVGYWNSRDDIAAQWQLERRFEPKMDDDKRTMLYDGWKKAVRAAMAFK

C[C@H](O)[C@@H](O)[C@@H](O)[C@H](O)C=O [L-fucose]
ΔE/min ([1]; inhibitor 10 mMol/l): 0.230 min⁻¹ | ΔE/min ([1]; inhibitor 20 mMol/l): 0.153 min⁻¹ | ΔE/min ([1]; inhibitor 50 mMol/l): 0.077 min⁻¹ | ΔE/min ([1]; inhibitor 100 mMol/l): 0.039 min⁻¹ | ΔE/min (GK from Escherichia coli; inhibitor 20 mMol/l): 0.352 min⁻¹ | ΔE/min (GK from Escherichia coli; inhibitor 50 mMol/l): 0.286 min⁻¹ | ΔE/min (GK from Escherichia coli; inhibitor 100 mMol/l): 0.209 min⁻¹ | ΔE/min (GK from Escherichia coli; inhibitor 150 mMol/l): 0.142 min⁻¹

O=C[C@@H](O)[C@H](O)[C@H](O)CO [D-arabinose]
ΔE/min ([1]; inhibitor 10 mMol/l): 0.426 min⁻¹ | ΔE/min ([1]; inhibitor 20 mMol/l): 0.349 min⁻¹ | ΔE/min ([1]; inhibitor 50 mMol/l): 0.249 min⁻¹ | ΔE/min ([1]; inhibitor 100 mMol/l): 0.121 min⁻¹ | ΔE/min (GK from Escherichia coli; inhibitor 20 mMol/l): 0.363 min⁻¹ | ΔE/min (GK from Escherichia coli; inhibitor 50 mMol/l): 0.302 min⁻¹ | ΔE/min (GK from Escherichia coli; inhibitor 100 mMol/l): 0.231 min⁻¹ | ΔE/min (GK from Escherichia coli; inhibitor 150 mMol/l): 0.167 min⁻¹

O=C[C@@H](O)[C@H](O)[C@@H](O)CO [L-xylose]
ΔE/min ([1]; inhibitor 2 mMol/l): 0.320 min⁻¹ | ΔE/min ([1]; inhibitor 5 mMol/l): 0.188 min⁻¹ | ΔE/min ([1]; inhibitor 10 mMol/l): 0.105 min⁻¹ | ΔE/min ([1]; inhibitor 20 mMol/l): 0.062 min⁻¹ | ΔE/min (GK from Escherichia coli; inhibitor 5 mMol/l): 0.228 min⁻¹ | ΔE/min (GK from Escherichia coli; inhibitor 10 mMol/l): 0.169 min⁻¹ | ΔE/min (GK from Escherichia coli; inhibitor 20 mMol/l): 0.118 min⁻¹ | ΔE/min (GK from Escherichia coli; inhibitor 50 mMol/l): 0.072 min⁻¹
